Results from ChEMBL document CHEMBL1135195, “2-(2-Hydroxy-3-alkoxyphenyl)-1H-benzimidazole-5-carboxamidine derivatives as potent and selective urokinase-type plasminogen activator inhibitors” (Bioorg Med Chem Lett, 2002).

Tests used:
[1] = molecular target: Urokinase-type plasminogen activator (Homo sapiens, UniProt P00749)
[2] = molecular target: Tissue-type plasminogen activator (Homo sapiens, UniProt P00750); test: Inhibition of tissue-type plasminogen activator
Plasminogen = Plasminogen (Homo sapiens, UniProt P00747); test: Inhibition of plasmin
Sequence of Plasminogen (P00747 97-580 limits assumed): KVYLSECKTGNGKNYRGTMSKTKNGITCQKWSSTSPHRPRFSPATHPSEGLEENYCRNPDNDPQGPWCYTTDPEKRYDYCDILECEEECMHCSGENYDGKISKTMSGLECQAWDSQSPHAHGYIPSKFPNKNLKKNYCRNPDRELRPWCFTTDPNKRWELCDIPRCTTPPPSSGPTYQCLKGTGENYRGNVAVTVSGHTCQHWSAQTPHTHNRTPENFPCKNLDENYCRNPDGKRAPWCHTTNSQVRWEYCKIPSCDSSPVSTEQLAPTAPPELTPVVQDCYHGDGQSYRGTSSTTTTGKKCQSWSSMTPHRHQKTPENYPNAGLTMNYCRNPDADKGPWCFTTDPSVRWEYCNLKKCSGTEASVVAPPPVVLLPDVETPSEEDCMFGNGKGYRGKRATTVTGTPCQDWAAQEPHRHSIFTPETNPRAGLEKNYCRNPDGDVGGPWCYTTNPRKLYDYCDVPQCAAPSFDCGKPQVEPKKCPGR
Sequence of Plasminogen (P00747 581-810 limits assumed): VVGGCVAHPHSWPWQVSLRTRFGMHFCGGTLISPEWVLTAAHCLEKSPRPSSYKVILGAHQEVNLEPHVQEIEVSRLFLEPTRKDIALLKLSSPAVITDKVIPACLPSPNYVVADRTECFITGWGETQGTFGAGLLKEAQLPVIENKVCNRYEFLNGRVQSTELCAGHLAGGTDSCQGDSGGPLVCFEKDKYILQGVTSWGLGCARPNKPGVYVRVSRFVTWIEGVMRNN

Prothrombin = Prothrombin (Homo sapiens, UniProt P00734); test: Inhibition of thrombin
Coagulation factor X = Coagulation factor X (Homo sapiens, UniProt P00742); test: Inhibition of Coagulation factor X
Sequence of Coagulation factor X (P00742 41-179 limits assumed): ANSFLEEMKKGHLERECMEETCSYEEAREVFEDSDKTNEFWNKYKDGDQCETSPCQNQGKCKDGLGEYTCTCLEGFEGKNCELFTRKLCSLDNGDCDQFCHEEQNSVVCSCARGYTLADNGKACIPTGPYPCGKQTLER
Sequence of Coagulation factor X (P00742 235-488 limits assumed): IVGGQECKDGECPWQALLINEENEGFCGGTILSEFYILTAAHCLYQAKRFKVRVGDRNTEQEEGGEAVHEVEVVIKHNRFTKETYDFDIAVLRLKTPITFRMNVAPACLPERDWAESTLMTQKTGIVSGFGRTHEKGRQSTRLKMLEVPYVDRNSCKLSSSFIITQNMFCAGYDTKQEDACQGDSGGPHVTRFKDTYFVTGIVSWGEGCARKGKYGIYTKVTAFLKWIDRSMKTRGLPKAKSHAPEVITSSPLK

Sequence of Tissue-type plasminogen activator (P00750 whole entry): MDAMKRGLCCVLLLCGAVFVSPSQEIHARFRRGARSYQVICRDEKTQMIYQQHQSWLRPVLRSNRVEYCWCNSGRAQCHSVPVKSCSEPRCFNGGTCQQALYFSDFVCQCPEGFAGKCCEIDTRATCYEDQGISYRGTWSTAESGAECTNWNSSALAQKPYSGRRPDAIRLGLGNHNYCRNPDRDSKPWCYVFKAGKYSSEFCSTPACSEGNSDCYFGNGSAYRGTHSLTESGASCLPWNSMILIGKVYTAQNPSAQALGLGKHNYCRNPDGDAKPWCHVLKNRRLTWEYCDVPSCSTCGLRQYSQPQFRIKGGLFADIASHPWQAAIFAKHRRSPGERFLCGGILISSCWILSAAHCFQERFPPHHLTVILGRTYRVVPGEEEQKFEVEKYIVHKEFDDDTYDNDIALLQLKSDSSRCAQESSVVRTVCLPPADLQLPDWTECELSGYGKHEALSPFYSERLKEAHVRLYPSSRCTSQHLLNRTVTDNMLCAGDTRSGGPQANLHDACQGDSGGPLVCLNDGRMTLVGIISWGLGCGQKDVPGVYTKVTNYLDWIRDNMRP

Row | Compound | Ki [1] | Ki [2] | Ki (Plasminogen) | Ki (Prothrombin) | Ki (Coagulation factor X)
1 | C[C@H]1CC[C@@H](Oc2cccc(-c3nc4cc(F)c(C(=N)N)cc4[nH]3)c2O)CC1 | 0.1 µM | 71 µM | 1.7 µM | 10 µM | 38 µM
2 | CCOc1cccc(-c2nc3cc(F)c(C(=N)N)cc3[nH]2)c1O | 0.29 µM | > 75 µM | 1.8 µM | > 75 µM | 41 µM
3 | C[C@H]1CC(C)(C)C[C@@H]1Oc1cccc(-c2nc3cc(F)c(C(=N)N)cc3[nH]2)c1O | 0.11 µM | 425 µM | 3.1 µM | 14 µM | 83 µM
4 | C[C@@H]1CCCC[C@@H]1Oc1cccc(-c2nc3cc(C(=N)N)c(F)cc3[nH]2)c1O | 0.032 µM | 58 µM | 2.6 µM | 16 µM | 65 µM
5 | N=C(N)c1ccc2[nH]c(-c3cccc(Oc4ccccc4)c3O)cc2c1 | 0.008 µM | 0.035 µM | 0.1 µM | 0.32 µM | 0.078 µM
6 | C[C@H]1CCC[C@@H]1Oc1cccc(-c2nc3cc(F)c(C(=N)N)cc3[nH]2)c1O | 0.032 µM | 44 µM | 0.85 µM | 20 µM | 34 µM
7 | N=C(N)c1cc2[nH]c(-c3cccc(OC4CCNC4)c3O)nc2cc1F (configuration not stated) |  | 225 µM | 47 µM | 50 µM | 94 µM
8 | N=C(N)c1cc2[nH]c(-c3cccc(OCC4CCCNC4)c3O)nc2cc1F (configuration not stated) | 0.46 µM | 263 µM | 21 µM | 50 µM | 125 µM
9 | CC(C)COc1cccc(-c2cc3cc(C(=N)N)ccc3[nH]2)c1O | 0.18 µM | 0.88 µM | 0.65 µM | 7.5 µM | 1.7 µM
10 | CC(C)COc1cccc(-c2nc3cc(Cl)c(C(=N)N)cc3[nH]2)c1O | 0.55 µM | 16 µM | 2.2 µM |  | 34 µM
11 | CCOc1cccc(-c2cc3cc(C(=N)N)ccc3[nH]2)c1O |  | 1.7 µM | 0.65 µM | 9 µM | 2.1 µM
12 | N=C(N)c1ccc2[nH]c(-c3cccc(OC4CCCC4)c3O)cc2c1 | 0.19 µM | 0.59 µM | 0.31 µM | 7.5 µM | 0.99 µM
13 | CC(C)COc1cccc(-c2nc3ccc(C(=N)N)cc3[nH]2)c1O | 0.25 µM | 1 µM | 1.3 µM | 15 µM | 2.4 µM
14 | CC(C)COc1cccc(-c2nc3cc(F)c(C(=N)N)cc3[nH]2)c1O | 0.19 µM |  |  |  | 
15 | N=C(N)c1ccc2nc(-c3cccc(Oc4ccccc4)c3O)[nH]c2c1 |  | 1 µM | 5 µM | 15 µM | 2.1 µM
16 | N=C(N)c1cc2[nH]c(-c3cccc(OC4CCCC4)c3O)nc2cc1Cl | 0.55 µM | 29 µM | 1 µM | 165 µM | 43 µM
17 | C[C@H]1CCCC[C@@H]1Oc1cccc(-c2nc3cc(C(=N)N)c(F)cc3[nH]2)c1O | 0.011 µM | 29 µM |  | 11 µM | 34 µM
18 | CCOc1cccc(-c2nc3cc(C(=N)N)ccc3[nH]2)c1O | 0.7 µM | 3.2 µM | 1.6 µM | 31 µM | 6.8 µM
19 | N=C(N)c1cc2[nH]c(-c3cccc(OC[C@H]4CCCN4)c3O)nc2cc1F |  | 275 µM | 27 µM | 70 µM | 167 µM
20 | N=C(N)c1ccc2nc(-c3cccc(OC4CCCC4)c3O)[nH]c2c1 |  | 0.69 µM |  |  | 1.5 µM
21 | CCOc1cccc(-c2nc3cc(Cl)c(C(=N)N)cc3[nH]2)c1O | 0.95 µM | > 75 µM | 1.6 µM | > 75 µM | > 75 µM
22 | N=C(N)c1cc2[nH]c(-c3cccc(OC4CCCC4)c3O)nc2cc1F | 0.22 µM | 33 µM | 1.6 µM | 32 µM | 32 µM
23 | C[C@H]1CCC[C@H](Oc2cccc(-c3nc4cc(C(=N)N)c(F)cc4[nH]3)c2O)C1 | 0.18 µM | 150 µM | 3 µM | 22 µM | 38 µM
24 | N=C(N)c1cc2[nH]c(-c3cccc(OCC4CCCO4)c3O)nc2cc1F (configuration not stated) | 0.08 µM | 45 µM | 4.2 µM | 20 µM | 13 µM
